Measured values: ChEMBL document CHEMBL1201862, “PubChem BioAssay data set” (2004)
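Each compound was tested at five concentrations against cells in 96-well plates for 48 hours. GI50: concentration for 50% inhibition of growth.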 Calls of active or inactive are those of the source. Rule as the data show it: active = GI50 up to about 1.1 µM and inactive = higher.

How the values were obtained:
Experiment in all cases: inhibition of tumour cell growth, NCI panel, 48 h
[1] = system: A549
[2] = system: ACHN
[3] = system: DU-145
[4] = system: HCT-15
[5] = system: HT-29
[6] = system: IGROV-1
[7] = system: M14
[8] = system: MCF7
[9] = system: MOLT-4
[10] = system: OVCAR-8
[11] = system: PC-3
[12] = system: RPMI-8226
[13] = system: SK-MEL-28
[14] = system: TK-10
[15] = system: UACC-62
[16] = system: UO-31
[17] = system: NCI-H226
[18] = system: NCI-H460
[19] = system: T47D

Row | SMILES | GI50 [1] | GI50 [2] | GI50 [3] | GI50 [4] [µM] | GI50 [5] | GI50 [6] | GI50 [7] | GI50 [8] | GI50 [9] | GI50 [10] | GI50 [11] | GI50 [12] | GI50 [13] | GI50 [14] | GI50 [15] | GI50 [16] | GI50 [17] | GI50 [18] | GI50 [19]
1 | N#Cc1nc(-c2cnccn2)oc1N | > 100 µM (inactive) | > 100 µM (inactive) | > 100 µM (inactive) | > 100 | > 100 µM (inactive) | > 100 µM (inactive) | > 100 µM (inactive) | > 100 µM (inactive) | > 100 µM (inactive) | > 100 µM (inactive) | > 100 µM (inactive) | 49.7 µM (inactive) | > 100 µM (inactive) | > 100 µM (inactive) | > 100 µM (inactive) | 62.5 µM (inactive) |  |  | 
2 | Cc1nc2c(=O)[nH]c3ccc(Cl)cc3c2o1 | > 100 µM (inactive) | > 100 µM (inactive) |  | > 100 | > 100 µM (inactive) | 89.7 µM (inactive) | > 100 µM (inactive) | > 100 µM (inactive) | > 100 µM (inactive) | > 100 µM (inactive) | > 100 µM (inactive) | > 100 µM (inactive) |  | > 100 µM (inactive) | > 100 µM (inactive) | > 100 µM (inactive) | > 100 µM (inactive) | > 100 µM (inactive) | > 100 µM (inactive)
3 | COCCN(C(=O)c1ccccc1)C1CCC2(SCCS2)c2[nH]c3ccccc3c21 (centres undefined) | 26.2 µM (inactive) | 37.5 µM (inactive) | > 100 µM (inactive) | 28.8 | 49.4 µM (inactive) | 34.5 µM (inactive) |  | 37.5 µM (inactive) | 18.5 µM (inactive) | 25.6 µM (inactive) | 20 µM (inactive) | 20.2 µM (inactive) | 74 µM (inactive) | 79.1 µM (inactive) |  | 40.7 µM (inactive) | > 100 µM (inactive) | 29.6 µM (inactive) | 
4 | Cc1cc(=O)oc2c3c(ccc12)OC(c1ccc(Br)cc1)CC3=O (centres undefined) | 16.7 µM (inactive) | 11.7 µM (inactive) |  | 7.48 | 14.7 µM (inactive) | 10.7 µM (inactive) | 10.4 µM (inactive) | 4.27 µM (inactive) | 1.79 µM (inactive) | 5.86 µM (inactive) | 6.25 µM (inactive) | 4.04 µM (inactive) | 8.67 µM (inactive) | 13.7 µM (inactive) | 7.98 µM (inactive) | 10.3 µM (inactive) | 18 µM (inactive) | 15 µM (inactive) | 0.177 µM (active)
5 | O=C1C=C2CC[C@H]3[C@@H]4CC[C@H](Oc5c6ccccc6nc6ccccc56)[C@H]4CC[C@@H]3[C@H]2CC1 | 54.1 µM (inactive) | 48.4 µM (inactive) | 87.7 µM (inactive) | 24.7 | 36.7 µM (inactive) | 31.9 µM (inactive) | 61.9 µM (inactive) |  |  | 22.9 µM (inactive) | 33.4 µM (inactive) |  | 48.9 µM (inactive) | 47.8 µM (inactive) | 16.7 µM (inactive) |  | 60.7 µM (inactive) | 35.6 µM (inactive) | 43.1 µM (inactive)
6 | O=C(COc1ccc(OCC(=O)N2C(=O)CC(=O)N(c3ccccc3)C2=S)cc1)N1C(=O)CC(=O)N(c2ccccc2)C1=S | 40.4 µM (inactive) | 66.7 µM (inactive) | 55.7 µM (inactive) | 88.5 | 61.2 µM (inactive) | 38.7 µM (inactive) | 89.5 µM (inactive) | 45.9 µM (inactive) | 41.8 µM (inactive) |  | 56.9 µM (inactive) | 31.1 µM (inactive) | 87.3 µM (inactive) | > 100 µM (inactive) | 32.2 µM (inactive) | 61.4 µM (inactive) | 65.8 µM (inactive) | 40.9 µM (inactive) | 
